Legend:
Assay type in all cases: in vivo, human
[1] = test system: adolescents with Fontan physiology; assay: FUEL Trial peripheral arterial tonometry (EndoPAT), log-transformed reactive hyperemia index; conditions: for Log-transformed reactive hyperemia index, difference Week 26 - baseline, mean (SD): paired data
Excerpt: Baseline clinical testing completed before drug initiation included a blood draw to measure brain-type natriuretic peptide (BNP) level, a cardiopulmonary exercise test (CPET) using a standardized cycle ergometer ramp protocol, a standardized echocardiogram, and an assessment of peripheral vascular function using peripheral arterial tonometry (PAT) measured by finger cuff (EndoPAT; Itamar Medical, Israel). Participants who achieved maximal effort, defined as respiratory exchange ratio (RER)≥1.10 at peak exercise during CPET, were eligible for randomization and study drug initiation. […] End-of-study clinical testing included repeat measurement of serum BNP, CPET, echocardiogram, and PAT.
Baseline clinical testing completed before drug initiation included a blood draw to measure brain-type natriuretic peptide (BNP) level, a cardiopulmonary exercise test (CPET) using a standardized cycle ergometer ramp protocol (previously described in children and adolescents with Fontan physiology, Sleeper L A, Anderson P, Hsu D T, Mahony L, McCrindle B W, Roth S J, Saul J P, Williams R V, Geva T, Colan S D, Clark B J and Pediatric Heart Network I. Design of a large cross-sectional study to facilitate future clinical trials in children with the Fontan palliation. Am Heart J. 152(3):427-433 (September 2006), a standardized echocardiogram, and an assessment of peripheral vascular function using peripheral arterial tonometry (PAT) measured by finger cuff (EndoPAT; Itamar Medical, Israel). Participants who achieved maximal effort, defined as respiratory exchange ratio (RER)>1.10 at peak exercise during CPET, were eligible for randomization and study drug initiation. […] End-of-study clinical testing included repeat measurement of serum BNP, CPET, echocardiogram, and PAT. […]

[2] = test system: adolescents with Fontan physiology; assay: FUEL Trial safety, adverse event reports
Excerpt: The primary outcome was the change in oxygen consumption at peak exercise (max or peak VO2) from baseline to the 26-week visit. Secondary exercise outcomes included change in additional measures at maximal exertion, as well as change in measures of submaximal exercise at the ventilatory anaerobic threshold (VAT). The primary outcome for clinical secondary aims included change in myocardial performance index (MPI), an echocardiographically-derived measure of systolic and diastolic ventricular function, change in log-transformed reactive hyperemia index (InRHI), a PAT-derived measure of peripheral vascular function, and change in log-transformed serum BNP level. Safety was monitored through adverse event reports, which were collected according to a pre-specified protocol of study coordinator outreach, and through ad hoc patient and family communication with members of the study team at each site.
The primary outcome for clinical secondary aims included the between group differences in change in myocardial performance index (MPI), an echocardiographically-derived measure of systolic and diastolic ventricular function, change in log-transformed reactive hyperemia index (InRHI), a PAT-derived measure of peripheral vascular function, and change in log-transformed serum BNP level. Measurements for each of these secondary outcomes were performed at core labs. Safety was monitored through adverse event reports, which were collected according to a pre-specified protocol of study coordinator outreach, and through ad hoc patient and family communication with members of the study team at each site.
A sample size of 200 participants per arm was chosen to allow for 90% power to detect a mean treatment difference in change from baseline to 26-week testing in peak VO2 of 10% with a type 1 error of 0.05. We assumed a baseline standard deviation of 7.235 ml/kg/min, a correlation between peak VO2 measurements of 0.33, a drop-out and incomplete testing rate of 10%, and failure to reach maximal effort at the 26-week exercise testing in 15% of participants. These assumptions were based on historical data and reflect a conservative approach to assessing within-participant correlations and failure to reach maximal effort and the analysis was performed using a two-sample, independent means t-test. The primary analysis used the intention-to-treat population to evaluate the difference in the change in the primary outcome between treatment arms. This difference was assessed with an analysis of covariance (ANCOVA) with fixed factors for ventricular morphology (single left versus single right or mixed) and treatment group, with a continuous covariate of baseline peak VO2. For those without data at the 26-week visit, this value was imputed as equal to the baseline value (no change). The alpha level was set at 0.05 with two-sided testing. All statistical analyses were performed using SAS statistical software 9.4 (SAS Institute, Inc., Cary, North Carolina). Secondary analyses included participants who successfully completed the protocol with measurable values at each of the secondary endpoints. Secondary outcomes of continuous data points were analyzed in the manner described for the primary outcome. In order to assess the generalizability of findings at the ventilatory anaerobic threshold, demographic and clinical characteristics were compared between participants without paired VO2 at VAT data and those comprising the remainder of the cohort using the Student's t-test and Fisher's exact test. Fisher's exact test was used to compare adverse events between the udenafil and placebo cohorts.

Fontan population = assay: FUEL OLE (open-label extension) trial; conditions: those treated with udenafil in the FUEL trial; 26 to 78 weeks
Excerpt: Like most extension studies, the FUEL open label extension trial was not a placebo-controlled trial, but was instead designed to establish a safety profile over a longer duration of drug exposure—and is an independent source of data from FUEL.

CCCOc1ccc(S(=O)(=O)NCCC2CCCN2C)cc1-c1nc2c(CCC)nn(C)c2c(=O)[nH]1 (centres unmarked) [Udenafil, udenafil]
Log-transformed reactive hyperemia index, difference LS Mean (SE), udenafil vs placebo ([1]; ANCOVA): 0.02 (0.030) | Log-transformed reactive hyperemia index, difference Week 26 - baseline, mean (SD) [1]: 0.06 (0.301) | Log-transformed reactive hyperemia index, difference Week 26 - baseline, mean (SD) ([1]; listed as udenafil): 0.07 | Dizziness, % of participants ([2]; human, in vivo, 26 weeks): (8.0) % | Dizziness, number of participants ([2]; human, in vivo, 26 weeks): 16 | Epistaxis, % of participants ([2]; human, in vivo, 26 weeks): (10.5) % | Epistaxis, number of participants ([2]; human, in vivo, 26 weeks): 21 | Flushing, % of participants ([2]; human, in vivo, 26 weeks): (16.0) % | Flushing, number of participants ([2]; human, in vivo, 26 weeks): 32 | Headache, % of participants ([2]; human, in vivo, 26 weeks): (39.5) % | Headache, number of participants ([2]; human, in vivo, 26 weeks): 79 | Nausea/vomiting, % of participants ([2]; human, in vivo, 26 weeks): (15.5) % | Nausea/vomiting, number of participants ([2]; human, in vivo, 26 weeks): 31 | Participants who experienced a serious adverse event ([2]; human, in vivo, 26 weeks): 14 | Serious adverse events with possible, probable, or definite relationship to study drug ([2]; human, in vivo, 26 weeks): 3 | Priapism ([2]; in vivo): no reported episodes of priapism | Increased erection, % of male participants ([2]; male, human, in vivo, 26 weeks): (11.7) % | Increased erection, number of participants ([2]; male, human, in vivo, 26 weeks): 13 | Deaths ([2]; study cohort): no deaths | Change from baseline in peak or max VO2 over FUEL and FUEL OLE (Fontan population): persistence of benefit

From US20240285630A1, “Methods and compositions for improving exercise performance” (MEZZION PHARMA CO., LTD., priority 2021, published 2024)
